Active and inactive are the calls of the source. The calls are words filed in the database; no cut-off is given here.
Legend:
Liver [1] = experiment: Metabolic stability in mouse liver microsomes assessed as metabolic rate per mg protein preincubated for 5 mins followed by NADPH addition measured up to 30 mins by LC-MS/MS analysis; assay type: ADME, microsome; conditions: 0.5 h
Adenosine receptor A2a [2] = biological target: T1, Adenosine receptor A2a (Homo sapiens, UniProt P29274); experiment: Displacement of [3H]-ZM-241385 from human adenosine receptor A2a expressed in HEK293 cell membranes at 0.1 uM after 90 mins by liquid scintillation counting method relative to control
Adenosine receptor A2b [3] = biological target: T2, Adenosine receptor A2b (Homo sapiens, UniProt P29275); experiment: Displacement of [3H]-MRS-1754 from human adenosine receptor A2b expressed in HEK293 cell membranes after 90 mins by liquid scintillation counting method
T2 sequence (P29275 whole entry): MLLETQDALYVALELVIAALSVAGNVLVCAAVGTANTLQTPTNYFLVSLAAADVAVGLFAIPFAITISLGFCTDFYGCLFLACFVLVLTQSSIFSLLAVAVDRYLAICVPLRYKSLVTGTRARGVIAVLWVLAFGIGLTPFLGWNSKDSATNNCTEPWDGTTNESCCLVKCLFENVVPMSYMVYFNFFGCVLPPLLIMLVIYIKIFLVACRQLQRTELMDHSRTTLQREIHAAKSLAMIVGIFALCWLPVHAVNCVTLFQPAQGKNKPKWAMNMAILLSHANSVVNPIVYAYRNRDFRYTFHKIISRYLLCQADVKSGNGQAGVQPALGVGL

Liver [4] = experiment: Metabolic stability in human liver microsomes assessed as metabolic rate per mg protein preincubated for 5 mins followed by NADPH addition measured up to 30 mins by LC-MS/MS analysis; assay type: ADME, microsome; conditions: 0.5 h
[5] = biological target: T3, Adenosine receptor A1 (Homo sapiens) (UniProt P30542); experiment: Displacement of [3H]DPCPX from human adenosine receptor A1 expressed in HEK293 cell membranes at 0.1 uM after 90 mins by liquid scintillation counting method relative to control
T3 sequence (whole entry): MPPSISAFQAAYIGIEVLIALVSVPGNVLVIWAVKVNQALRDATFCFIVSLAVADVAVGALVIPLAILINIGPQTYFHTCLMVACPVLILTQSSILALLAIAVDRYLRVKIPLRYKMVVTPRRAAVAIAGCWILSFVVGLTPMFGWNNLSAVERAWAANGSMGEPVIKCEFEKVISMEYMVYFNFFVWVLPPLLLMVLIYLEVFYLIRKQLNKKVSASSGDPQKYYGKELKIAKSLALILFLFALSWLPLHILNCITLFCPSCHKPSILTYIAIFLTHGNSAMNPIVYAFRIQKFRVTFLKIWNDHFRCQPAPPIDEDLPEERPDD

[6] = biological target: T4, Adenosine receptor A3 (Homo sapiens) (UniProt P0DMS8); experiment: Displacement of [3H]-HEM-ADO from human adenosine receptor A3 expressed in HEK293 cell membranes at 1 uM after 90 mins by liquid scintillation counting method relative to control
T4 sequence (whole entry): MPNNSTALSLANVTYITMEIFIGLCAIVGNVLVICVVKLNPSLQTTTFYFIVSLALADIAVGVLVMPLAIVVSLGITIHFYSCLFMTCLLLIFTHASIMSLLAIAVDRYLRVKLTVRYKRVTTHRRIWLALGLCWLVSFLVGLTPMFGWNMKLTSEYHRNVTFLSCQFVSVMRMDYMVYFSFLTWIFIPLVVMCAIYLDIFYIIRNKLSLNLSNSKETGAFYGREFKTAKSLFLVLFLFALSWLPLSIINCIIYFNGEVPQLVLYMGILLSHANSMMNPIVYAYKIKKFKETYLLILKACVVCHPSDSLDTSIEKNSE

[7] = Solubility of the compound; assay type: physicochemical
Adenosine receptor A2b [8] = biological target: T2, Adenosine receptor A2b; experiment: Antagonist activity at human adenosine receptor A2b expressed in HEK293 cells assessed as inhibition of NECA-induced cAMP level preincubated for 15 mins followed by NECA stimulation for 15 mins by HTRF assay; assay type: functional, cell-based
Homo sapiens [9] = organism: Homo sapiens; experiment: Selectivity ratio of Ki for human adenosine receptor A1 expressed in HEK293 cell membranes to Ki for human adenosine receptor A2b expressed in HEK293 cell membranes; assay type: cell-based
Homo sapiens [10] = organism: Homo sapiens; experiment: Selectivity ratio of Ki for human adenosine receptor A2a expressed in HEK293 cell membranes to Ki for human adenosine receptor A2b expressed in HEK293 cell membranes; assay type: cell-based
Adenosine receptor A2a [11] = biological target: T1, Adenosine receptor A2a; experiment: Displacement of [3H]-ZM-241385 from human adenosine receptor A2a expressed in HEK293 cell membranes after 90 mins by liquid scintillation counting method
Adenosine receptor A1 = biological target: T5, Adenosine receptor A1 (Homo sapiens, UniProt P30542); experiment: Displacement of [3H]DPCPX from human adenosine receptor A1 expressed in HEK293 cell membranes after 90 mins by liquid scintillation counting method
T5 sequence (P30542 whole entry): T3 sequence (whole entry)

[12] = Oral bioavailability in C57BL/6J mouse at 10 mg/kg via gavage by LC-MS/MS analysis; assay type: ADME, organism-based; conditions: in vivo
[13] = Cmax in C57BL/6J mouse at 10 mg/kg, po via gavage by LC-MS/MS analysis; assay type: ADME, organism-based; set-up: dose 10 mg/kg, route oral; conditions: in vivo
Mus musculus [14] = experiment: (§1) Antiallergic activity in Balb/c mouse model of ovalbumin-induced allergic asthma assessed as inhibition of NECA-induced airway hyperresponsiveness in ovalbumin sensitized mouse at 3 mg/kg, ip bid administered 1 hr before OVA challenge for 60 mins followed by test compound treatment 5 hrs after OVA challenge on day 12 to 15 measured on day 15; assay type: functional, organism-based
[15] = Half life in C57BL/6J mouse at 10 mg/kg, po via gavage by LC-MS/MS analysis; assay type: ADME, organism-based; conditions: in vivo
[16] = Inhibition of CYP450 (unknown origin); assay type: ADME, Homo sapiens
MDCK = experiment: Cytotoxicity against MDCK cells; conditions: Canis lupus familiaris
HepG2 = experiment: Cytotoxicity against human HepG2 cells
[17] = AUC(0 to t) in C57BL/6J mouse at 10 mg/kg, po via gavage by LC-MS/MS analysis; assay type: ADME, organism-based; conditions: in vivo
Mus musculus [18] = experiment: as §1, with “total cell count in BALF” for “NECA-induced airway hyperresponsiveness”; assay type: functional, organism-based

T1 sequence (P29274 whole entry): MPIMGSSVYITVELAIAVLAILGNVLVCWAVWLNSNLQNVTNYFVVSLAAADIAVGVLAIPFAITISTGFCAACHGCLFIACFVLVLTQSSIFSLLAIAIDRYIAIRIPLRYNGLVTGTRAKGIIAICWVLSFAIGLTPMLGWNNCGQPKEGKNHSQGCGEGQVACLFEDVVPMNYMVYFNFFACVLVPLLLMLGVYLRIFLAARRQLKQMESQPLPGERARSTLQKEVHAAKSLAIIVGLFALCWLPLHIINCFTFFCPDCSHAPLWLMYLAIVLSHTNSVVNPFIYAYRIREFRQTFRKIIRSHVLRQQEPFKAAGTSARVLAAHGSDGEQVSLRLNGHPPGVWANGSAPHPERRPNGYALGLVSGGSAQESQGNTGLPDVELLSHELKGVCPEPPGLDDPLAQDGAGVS

SMILES	Drug metabolism (Liver [1]) [nmol/min/mg]	inhibition (Adenosine receptor A2a [2]) [%]	Ki (Adenosine receptor A2b [3]) [nM]	Drug metabolism (Liver [4]) [nmol/min/mg]	inhibition [5] [%]	inhibition [6] [%]	solubility [7]	Ki (Adenosine receptor A2b [8]) [nM]	Ratio Ki (Homo sapiens [9])	Ratio Ki (Homo sapiens [10])	Ki (Adenosine receptor A2a [11]) [nM]	Ki (Adenosine receptor A1) [nM]	also measured
CCCn1c(=O)c2[nH]c(-c3ccc(OCC4CC(=O)N(c5ccc(C(F)(F)F)cc5)C4)cc3)nc2n(CCC)c1=O (centres undefined)	0.01	60	1	0.05	29	23	Insoluble						
CCCn1c(=O)c2[nH]c(-c3ccc(OCC4CC(=O)N(c5ccc(C(F)(F)F)cc5)C4)nc3)nc2n(CCC)c1=O (centres undefined)	0	46	3	0.02	25	0	Insoluble	71	> 266	17	53	> 800	
CCCn1c(=O)c2[nH]c(-c3ccc(OCC4CC(=O)N(c5cccc(C(F)(F)F)c5)C4)cc3)nc2n(CCC)c1=O (centres undefined)	0.06	80	7.5	0.09	1	13	Insoluble						
CCCn1c(=O)c2[nH]c(-c3cnn(CC4CCN(c5ccc(OC(F)(F)F)cc5)C4=O)c3)nc2n(CCC)c1=O (centres undefined)	0.03	7	6 to 8	0.02	51	32		191	56	6	36	340	
CCCn1c(=O)c2[nH]c(-c3ccc(OCC4CC(=O)N(c5ccc(F)cc5)C4)nc3)nc2n(CCC)c1=O (centres undefined)		80	4		30	53	Insoluble						
CCCn1c(=O)c2[nH]c(-c3ccc(OCC4CC(=O)N(c5cccc(F)c5)C4)cc3)nc2n(CCC)c1=O (centres undefined)		89	9		33	19	Insoluble						
CCCn1c(=O)c2[nH]c(-c3cnn(CC(=O)N4CCN(c5cccc(C(F)(F)F)c5)CC4)c3)nc2n(CCC)c1=O	0.04	37	1.5	0.16	32	0		4	118	38	57	177	bioavailability [12]: 65%; Cmax [13]: 44 µM; inhibition (Mus musculus [14]): Active; half-life [15]: 1.9 h; IC50 [16]: > 25000 nM; IC50 (MDCK): > 100000 nM; IC50 (HepG2): > 100000 nM; AUC(0-t) [17]: 51 µM·h; inhibition (Mus musculus [18]): Active
CCCn1c(=O)c2[nH]c(-c3ccc(OCC4CC(=O)N(c5cccc(F)c5)C4)nc3)nc2n(CCC)c1=O (centres undefined)		85	4.6		17	53	Insoluble						
CCCn1c(=O)c2[nH]c(-c3cnn(CC4CC(=O)N(c5ccc(C(F)(F)F)cc5)C4)c3)nc2n(CCC)c1=O (centres undefined)	0.16	52	1	0.02	49	0		0.9	108	124	124	108	bioavailability [12]: 27%; Cmax [13]: 16.7 µM; half-life [15]: 2.4 h; AUC(0-t) [17]: 21 µM·h
CCCn1c(=O)c2[nH]c(-c3cnn(CC4CC(=O)N(c5ccc(F)cc5)C4)c3)nc2n(CC)c1=O (centres undefined)	0.15	33	12	0	22	0		4	28	16	192	346	
CCCn1c(=O)c2[nH]c(-c3ccc(OCC4CC(=O)N(c5cccc(C(F)(F)F)c5)C4)nc3)nc2n(CCC)c1=O (centres undefined)	0	71	8.7	0.05	4	26	Insoluble						
CCCn1c(=O)c2[nH]c(-c3cc(OCC4CC(=O)N(c5ccc(C(F)(F)F)cc5)C4)no3)nc2n(CCC)c1=O (centres undefined)	0.04	18	12.8	0.07	0	0		540	328	226	2900	4200	
CCCn1c(=O)c2[nH]c(-c3cnn(CC4CC(=O)N(c5ccc(C(F)(F)F)cc5)C4)c3)nc2n(CC)c1=O (centres undefined)	0.16	4	4	0.08	6	4		8	167	115	460	670	bioavailability [12]: 11%; Cmax [13]: 3.8 µM; half-life [15]: 0.9 h; AUC(0-t) [17]: 2.9 µM·h
CCCn1c(=O)c2[nH]c(-c3cnn(CC4CC(=O)N(c5ccc(OC)cc5)C4)c3)nc2n(CC)c1=O (centres undefined)	0.07	21	16	0.11	15	14		14	44	30	486	711	
CCCn1c(=O)c2[nH]c(-c3cnn(CC4CCN(c5cccc(OC)c5)C4)c3)nc2n(CCC)c1=O (centres undefined)	0.67	69	13.7	0.78	43	12							
CCCn1c(=O)c2[nH]c(-c3ccc(OCC4CC(=O)N(c5ccc(F)cc5)C4)cc3)nc2n(CCC)c1=O (centres undefined)		89	5.4		29	44	Insoluble						
CCCn1c(=O)c2[nH]c(-c3cnn(CC4CCN(c5ccc(OC)cc5)C4)c3)nc2n(CCC)c1=O (centres undefined)	0.43	53	13	0.37	21	3							

From ChEMBL document CHEMBL3994582, “A2B adenosine receptor antagonists: Design, synthesis and biological evaluation of novel xanthine derivatives” (Eur J Med Chem, 2017)
